Columns and labels:
[1] = system: MyD88/NF-κB and ERK signaling pathway; assay: Simple Western / RT-qPCR of MyD88/NF-κB and ERK pathway in the brain of CIRI mice; assay type: in vivo, C57BL/6 mice; conditions: TJ-5 15 mg/kg
Method: Total mRNA was extracted from the brain cortex using TRIzol reagent and reverse-transcribed into cDNA using the PrimeScript™ RT reagent kit (Takara, Japan), following the manufacturer’s instructions. RT-qPCR was performed using SYBR Green Real-time PCR Master Mix (Takara, Japan) with the Step One System (Life Technologies). The results were expressed as fold change from the untreated control and analyzed using the 2^−ΔΔCt method. The primers were as follows (5′–3′): MyD88 forward: TTTATCTGCTACTGCCCCAACG, reverse: GCGGCGACACCTTTTCTCA; TLR4 forward: ATGCTGCAACTGATGTTCCTTC, reverse: GATGTTAGACCTTTCTTCCTCCC; GAPDH forward: TGTTCCTACCCCCAATGTGTCC, reverse: GGAGTTGCTGTTGAAGTCGCAG; TNF-α forward: ATGGCCTCCCTCTCATCAGT, reverse: TGGTTTGCTACGACGTGGG; IL-6 forward: AGTGGCTAAGGACCAAGAC, reverse: ATAACGCACTAGGTTTGCCGA; iNOS forward: ATTCACAGCTCATCCGGTACG, reverse: GGATCTTGACCATCAGCTTGC; IL-1β forward: GCACTACAGGCTCCGAGATGAA, reverse: GTCGTTGCTTGGTTCTCCTTGT.
Here, Simple Western, a novel immunoassay to detect proteins in the brain, was used, as previously described ([Kannan et al., 2018]; [Nanki et al., 2018]). Briefly, the prepared proteins were diluted to a concentration of 0.5 mg/ml using a sample preparation kit (Protein Simple, United States). Then, according to the manufacturer’s instructions, the prepared reagents were added to the detection plate sequentially for processing in an automated capillary electrophoresis system (Simple Western system). The primary antibodies recognized HMGB1, TLR4, MyD88, NeuN, P-ERK, P-IκBα, IκBα, NF-κB p65 (CST, 1:50), Histone H3 (ABclonal, 1:50), and GAPDH (ABclonal, 1:1000). Compass for SW software v4.0.0 (Protein Simple, United States) was used to quantitatively analyze the signal intensity (area) of the protein.

[2] = system: BV-2 cells; assay: CCK-8 cell viability assay, BV-2; assay type: cell-based; conditions: concentrations below 20 μM, 24 h
Method: BV-2 and SH-SY5Y cells were seeded in a 96-well plate at a density of 1 × 10^4 cells/well. Twenty-4 hours later, different concentrations of TJ-5 (0, 1, 5, 10, 20, and 30 μM) were added and co-cultured with cells for 24 h. Cell Counting Kit-8 (CCK8, Sigma, Shanghai, China) was used to measure cell viability. Experiments were conducted according to the manufacturer’s instructions. After incubation at 37°C for 2 h, absorbance was measured at 450 nm using a microplate reader (Synergy 2, BioTek Instruments, United States).

SMILES: O=C(CCN1CCN(Cc2ccccc2)CC1)Nc1nc(-c2ccccc2)cs1 [TJ-5]
- expression of HMGB1, TLR4, and MyD88 in the ischemic hemisphere [1]: downregulated
- phosphorylation of ERK in the ischemic hemisphere [1]: inhibited
- phosphorylation of IκBα and nuclear translocation of NF-κB p65 in the ischemic hemisphere [1]: reduced
- NeuN protein levels in the brain ([1]; I/R-induced decrease): attenuated this decrease
- viability of BV-2 cells [2]: did not affect the viability
